Patent US4294757A, “20-O-Acylmaytansinoids” (Takeda Chemical Industries, Ltd, priority 1979, dated 1981)
≈ marks a conversion by molar mass, not a printed value.

Key:
[1] = tested on: Hamigera avellanea IFO 7721; experiment: Antifungal activity against Hamigera avellanea IFO 7721, paper disc method; type: cell-based; conditions: IFO7721, paper disc 8 mm diameter, 0.02 ml of a 100 μg/ml solution, pH 7.0, read-out: Antifungal activity, φmm (zone of growth inhibition), Hamigera avellanea IFO 7721
Experimental: On the other hand, the antifungal activity of the test compound is assayed against Hamigera avellanea IFO 7721 by the paper disc method, employing agar plates [each containing the medium consisting of 3.5 g of disodium phosphate 0.5 g monopotassium phosphate, 5 g yeast extract (Difco), 10 g glucose, 15 g agar, 1000 ml distilled water, and adjusted to pH 7.0]. Thus, on the plates inoculated with the above microorganism, the zones of growth inhibition are determined using paper discs (supplied by Toyo Seisakusho, Japan, thin-type, 8 mm diameter) immersed with 0.02 ml of a 100 μg/ml solution of 20-O-acylmaytansinoid compound (I).

Tetrahymena pyriformis W = experiment: Antiprotozoal activity against Tetrahymena pyriformis W, serial dilution method; type: cell-based; conditions: 28° C., 44 to 48 hours, pH 7.0
Experimental: Then, with Tetrahymena pyriformis W strain used as the test microorganism and a medium composed of 20 g tryptose peptone (Difco), lg yeast extract, 2 g glucose, 1000 ml distilled water and 10 ml of a 1 M phosphate buffer of pH 7.0 as the assay medium, the microorganism is incubated at 28° C. for 44 to 48 hours, and the growth inhibitory activity of said antibiotic compound is assayed by the serial dilution method.

Structure (SMILES)	zone of inhibition at 100 µg/mL [1] [mm]	MIC (Tetrahymena pyriformis W) [µg/mL]
CCCC(=O)Oc1cc2cc(c1Cl)N(C)C(=O)CC(OC(=O)C(C)C)C1(C)OC1C(C)C1CC(O)(NC(=O)O1)C(OC)/C=C/C=C(\C)C2 (stereo not drawn) [PDM-3 20-butyrate]	40	–
CCCCC(=O)Oc1cc2cc(c1Cl)N(C)C(=O)CC(OC(=O)C(C)C)C1(C)OC1C(C)C1CC(O)(NC(=O)O1)C(OC)/C=C/C=C(\C)C2 (stereo not drawn) [PDM-3 20-valerate]	44	–
COC1/C=C/C=C(\C)Cc2cc(OC(=O)CC(C)C)c(Cl)c(c2)N(C)C(=O)CC(OC(=O)C(C)C)C2(C)OC2C(C)C2CC1(O)NC(=O)O2 (stereo not drawn) [PDM-3 20-i-valerate, PDM-3 20-isovalerate]	44	2 (≈ 2.84 µM)
COC1/C=C/C=C(\C)Cc2cc(OC(=O)C(C)C)c(Cl)c(c2)N(C)C(=O)CC(OC(=O)C(C)C)C2(C)OC2C(C)C2CC1(O)NC(=O)O2 (stereo not drawn) [PDM-3 20-i-butyrate, PDM-3 20-isobutyrate]	40	–
COC1/C=C/C=C(\C)Cc2cc(OC(=O)c3ccccn3)c(Cl)c(c2)N(C)C(=O)CC(OC(=O)C(C)C)C2(C)OC2C(C)C2CC1(O)NC(=O)O2 (stereo not drawn) [PDM-3 20-picolinate]	21	2 (≈ 2.75 µM)
COC1/C=C/C=C(\C)Cc2cc(OC(=O)c3ccccc3)c(Cl)c(c2)N(C)C(=O)CC(OC(=O)C(C)C)C2(C)OC2C(C)C2CC1(O)NC(=O)O2 (stereo not drawn) [PDM-3 20-benzoate]	35	–
COC1/C=C/C=C(\C)Cc2cc(OC(=O)Cc3ccccc3)c(Cl)c(c2)N(C)C(=O)CC(OC(=O)C(C)C)C2(C)OC2C(C)C2CC1(O)NC(=O)O2 (stereo not drawn) [PDM-3 20-phenylacetate]	31	–
COC1/C=C/C=C(\C)Cc2cc(OC(C)=O)c(Cl)c(c2)N(C)C(=O)CC(OC(=O)C(C)C)C2(C)OC2C(C)C2CC1(O)NC(=O)O2 (stereo not drawn) [PDM-3 20-acetate]	31	2 (≈ 3.02 µM)
COC1/C=C/C=C(\C)Cc2cc(OC(=O)c3ccccc3Br)c(Cl)c(c2)N(C)C(=O)CC(OC(=O)C(C)C)C2(C)OC2C(C)C2CC1(O)NC(=O)O2 (stereo not drawn) [PDM-3 20-o-bromobenzoate, PDM-3 20-ortho-bromobenzoate]	27	–
COC1/C=C/C=C(\C)Cc2cc(OC(=O)Nc3ccccc3)c(Cl)c(c2)N(C)C(=O)CC(OC(=O)C(C)C)C2(C)OC2C(C)C2CC1(O)NC(=O)O2 (stereo not drawn) [PDM-3 20-phenylcarbamate]	16.5	≤ 1
CCC(=O)Oc1cc2cc(c1Cl)N(C)C(=O)CC(OC(=O)C(C)C)C1(C)OC1C(C)C1CC(O)(NC(=O)O1)C(OC)/C=C/C=C(\C)C2 (stereo not drawn) [PDM-3 20-propionate]	34	2 (≈ 2.95 µM)
COC1/C=C/C=C(\C)Cc2cc(OC(=O)C3CCCCC3)c(Cl)c(c2)N(C)C(=O)CC(OC(=O)C(C)C)C2(C)OC2C(C)C2CC1(O)NC(=O)O2 (stereo not drawn) [PDM-3 20-cyclohexylcarboxylate, PDM-3 20-cyclohexanecarboxylate]	22	–
C/C=C/C(=O)Oc1cc2cc(c1Cl)N(C)C(=O)CC(OC(=O)C(C)C)C1(C)OC1C(C)C1CC(O)(NC(=O)O1)C(OC)/C=C/C=C(\C)C2 (stereo not drawn) [PDM-3 20-crotonate]	35	–
